Counter-ions that a name gives are not always drawn.
Target: T1, human muscarinic receptors M3 (Homo sapiens, UniProt P20309)
T1 construct: expressed in transfected cells; host or cells: CHO-K1 (chinese hamster ovary-K1), stably transfected; membrane preparations
Assay: biochemical
Assay type: binding
Settings: for inhibition at 0.1 µM: read-out: % INHIBITION concentration: 1.00E−07 M; for inhibition at 0.01 µM: read-out: % INHIBITION concentration: 1.00E−08 M

T1 sequence (P20309 whole entry): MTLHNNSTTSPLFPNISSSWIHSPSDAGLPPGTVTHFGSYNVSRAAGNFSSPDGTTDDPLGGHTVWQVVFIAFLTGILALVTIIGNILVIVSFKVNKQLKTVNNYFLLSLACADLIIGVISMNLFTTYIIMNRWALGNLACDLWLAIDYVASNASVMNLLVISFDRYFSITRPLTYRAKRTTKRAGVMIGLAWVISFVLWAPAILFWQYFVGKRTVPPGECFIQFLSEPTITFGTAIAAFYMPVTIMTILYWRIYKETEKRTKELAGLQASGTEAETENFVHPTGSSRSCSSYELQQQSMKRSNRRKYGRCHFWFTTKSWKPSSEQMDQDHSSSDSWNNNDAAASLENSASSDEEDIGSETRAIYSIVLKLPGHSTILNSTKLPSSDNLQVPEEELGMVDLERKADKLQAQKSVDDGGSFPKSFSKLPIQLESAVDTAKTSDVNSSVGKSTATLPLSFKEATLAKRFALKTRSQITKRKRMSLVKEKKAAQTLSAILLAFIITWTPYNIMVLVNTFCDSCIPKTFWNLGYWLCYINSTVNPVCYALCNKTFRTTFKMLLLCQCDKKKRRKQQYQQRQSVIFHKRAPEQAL

Row | Structure (SMILES) | inhibition at 0.1 µM | inhibition at 0.01 µM | % INHIBITION concentration: 1.00E−08 M (0.01 µM) | % INHIBITION concentration: 1.00E−07 M (0.1 µM)
1 | C=CCC(O)(C(=O)O[C@H]1C[N+]2(CCCOc3ccccc3)CCC1CC2)c1cccs1 (stereo partly drawn) [Example 13, (3R)-3-(2-Hydroxy-2-thien-2-ylpent-4-enoyloxy)-1-(3-phenoxypropyl)-1-azoniabicyclo[2.2.2]octane bromide] | 76% | 36% | – | –
2 | CCCCCC(O)(C(=O)O[C@H]1C[N+]2(CCCOc3ccccc3)CCC1CC2)c1cccs1 (stereo partly drawn) [Example 16, (3R)-3-(2-Hydroxy-2-thien-2-ylheptanoyloxy)-1-(3-phenoxypropyl)-1-azoniabicyclo[2.2.2]octane trifluoroacetate] | 74.2% | 36.3% | – | –
3 | O=C(O[C@H]1C[N+]2(CCCOc3ccccc3)CCC1CC2)[C@](O)(c1cccs1)C1CCCC1 [Example 22, (3R)-3-[(2S)-2-Cyclopentyl-2-hydroxy-2-thien-2-ylacetoxy]-1-(3-phenoxypropyl)-1-azoniabicyclo[2.2.2]octane bromide] | 81.5% | 72% | – | –
4 | O=C(O[C@H]1C[N+]2(CCCc3cccs3)CCC1CC2)[C@](O)(c1cccs1)C1CCCC1 [Example 23, (3R)-3-[(2S)-2-Cyclopentyl-2-hydroxy-2-thien-2-yl-acetoxy]-1-(3-thien-2-ylpropyl)-1-azoniabicyclo[2.2.2]octane trifluoroacetate] | 75.6% | 63.3% | – | –
5 | O=C(O[C@H]1C[N+]2(CCOc3ccccc3)CCC1CC2)[C@](O)(c1cccs1)C1CCCC1 [Example 24, (3R)-3-[(2S)-2-Cyclopentyl-2-hydroxy-2-thien-2-ylacetoxy]-1-(2-phenoxyethyl)-1-azoniabicyclo[2.2.2]octane bromide] | 78% | 56.6% | – | –
6 | O=C(O[C@H]1C[N+]2(CCc3ccccc3)CCC1CC2)[C@](O)(c1cccs1)C1CCCC1 [Example 25, (3R)-3-[(2S)-2-Cyclopentyl-2-hydroxy-2-thien-2-ylacetoxy]-1-phenethyl-1-azoniabicyclo[2.2.2]octane trifluoroacetate] | 76.1% | 62.6% | – | –
7 | O=C(O[C@H]1C[N+]2(CCCc3ccccc3)CCC1CC2)[C@](O)(c1cccs1)C1CCCC1 [Example 26, (3R)-3-[(2S)-2-Cyclopentyl-2-hydroxy-2-thien-2-ylacetoxy]-1-(3-phenylpropyl)-1-azoniabicyclo[2.2.2]octane trifluoroacetate] | 75.6% | 63.8% | – | –
8 | O=C(O[C@H]1C[N+]2(CCCOc3ccc(F)cc3)CCC1CC2)[C@](O)(c1cccs1)C1CCCC1 [Example 28, (3R)-3-[(2S)-2-Cyclopentyl-2-hydroxy-2-thien-2-ylacetoxy]-1-[3-(4-fluorophenoxy)propyl]-1-azoniabicyclo[2.2.2]octane trifluoroacetate] | 78.3% | 60.6% | – | –
9 | O=C(O[C@H]1C[N+]2(CCCOc3cccc(O)c3)CCC1CC2)[C@](O)(c1cccs1)C1CCCC1 [Example 31, (3R)-3-[(2S)-2-Cyclopentyl-2-hydroxy-2-thien-2-ylacetoxy]-1-[3-(3-hydroxyphenoxy)propyl]-1-azoniabicyclo[2.2.2]octane trifluoroacetate] | 74.3% | 54.3% | – | –
10 | Cc1ccccc1OCCC[N+]12CCC(CC1)[C@@H](OC(=O)[C@](O)(c1cccs1)C1CCCC1)C2 [Example 33, (3R)-3-[(2S)-2-Cyclopentyl-2-hydroxy-2-thien-2-ylacetoxy]-1-(3-o-tolyloxypropyl)1-azoniabicyclo[2.2.2]octane trifluoroacetate] | 72.8% | 46.7% | – | –
11 | N#Cc1cccc(OCCC[N+]23CCC(CC2)[C@@H](OC(=O)[C@](O)(c2cccs2)C2CCCC2)C3)c1 [Example 34, 1-[3-(3-Cyanophenoxy)propyl]-(3R)-3-[(2S)-2-cyclopentyl-2-hydroxy-2-thien-2-ylacetoxy]-1-azoniabicyclo[2.2.2]octane trifluoroacetate] | 85.3% | 68.3% | – | –
12 | CN(CCC[N+]12CCC(CC1)[C@@H](OC(=O)[C@](O)(c1cccs1)C1CCCC1)C2)c1ccccc1 [Example 36, (3R)-3-[(2S)-2-Cyclopentyl-2-hydroxy-2-thien-2-ylacetoxy]-1-[3-(methylphenylamino)propyl]-1-azoniabicyclo[2.2.2]octane trifluoroacetate] | 84.2% | 42% | – | –
13 | O=C(O[C@H]1C[N+]2(CCCSc3ccccc3)CCC1CC2)[C@](O)(c1cccs1)C1CCCC1 [Example 37, (3R)-3-[(2S)-2-Cyclopentyl-2-hydroxy-2-thien-2-ylacetoxy]-1-(3-phenylsulfanylpropyl)-1-azoniabicyclo[2.2.2]octane trifluoroacetate] | 88.1% | 72.6% | – | –
14 | O=C(CCC[N+]12CCC(CC1)[C@@H](OC(=O)[C@](O)(c1cccs1)C1CCCC1)C2)c1ccccc1 [Example 38, (3R)-3-[(2S)-2-Cyclopentyl-2-hydroxy-2-thien-2-ylacetoxy]-1-(4-oxo-4-phenylbutyl)-1-azoniabicyclo[2.2.2]octane trifluoroacetate] | 86.3% | 57.7% | – | –
15 | O=C(O[C@H]1C[N+]2(CCCOc3ccccc3Cl)CCC1CC2)[C@](O)(c1cccs1)C1CCCC1 [Example 40, 1-[3-(2-Chlorophenoxy)-propyl]-(3R)-3-[(2S)-2-cyclopentyl-2-hydroxy-2-thien-2-ylacetoxy]-1-azoniabicyclo[2.2.2]octane trifluoroacetate] | 86.9% | 72.7% | – | –
16 | O=C(O[C@H]1C[N+]2(CCCOc3ccc(F)cc3F)CCC1CC2)[C@](O)(c1cccs1)C1CCCC1 [Example 43, (3R)-3-[(2S)-2-Cyclopentyl-2-hydroxy-2-thien-2-ylacetoxy]-1-[3-(2,4-difluorophenoxy)propyl]-1-azoniabicyclo[2.2.2]octane trifluoroacetate] | 83.4% | 58.7% | – | –
17 | COc1ccc(OCCC[N+]23CCC(CC2)[C@@H](OC(=O)[C@](O)(c2cccs2)C2CCCC2)C3)cc1 [Example 44, (3R)-3-[(2S)-2-Cyclopentyl-2-hydroxy-2-thien-2-ylacetoxy]-1-[3-(4-methoxyphenoxy)propyl]-1-azoniabicyclo[2.2.2]octane trifluoroacetate] | 84.6% | 44.6% | – | –
18 | O=C(O[C@H]1C[N+]2(CCCOc3ccc4c(c3)OCO4)CCC1CC2)[C@](O)(c1cccs1)C1CCCC1 [Example 46, 1-[3-(Benzo[1,3]dioxol-5-yloxy)propyl]-(3R)-3-[(2S)-2-cyclopentyl-2-hydroxy-2-thien-2-ylacetoxy]-1-azoniabicyclo[2.2.2]octane trifluoroacetate] | 87.1% | 57.6% | – | –
19 | O=C(O[C@H]1C[N+]2(CCCOc3ccccc3)CCC1CC2)[C@@](O)(c1cccs1)C1CCCC1 [Example 53, (3R)-3-[(2R)-2-cyclopentyl-2-hydroxy-2-thien-2-ylacetoxy]-1-(3-phenoxypropyl)-1-azoniabicyclo[2.2.2]octane bromide] | 81.5% | 58% | – | –
20 | O=C(O[C@H]1C[N+]2(CCCc3cccs3)CCC1CC2)[C@@](O)(c1cccs1)C1CCCC1 [Example 54, (3R)-3-[(2R)-2-Cyclopentyl-2-hydroxy-2-thien-2-ylacetoxy]-1-(3-thien-2-ylpropyl)-1-azoniabicyclo[2.2.2]octane trifluoroacetate] | 72.5% | 44.1% | – | –
21 | O=C(O[C@H]1C[N+]2(CCc3ccccc3)CCC1CC2)[C@@](O)(c1cccs1)C1CCCC1 [Example 56, (3R)-3-[(2R)-2-Cyclopentyl-2-hydroxy-2-thien-2-ylacetoxy]-1-phenethyl-1-azoniabicyclo[2.2.2]octane trifluoroacetate] | 77.3% | 53.8% | – | –
22 | O=C(O[C@H]1C[N+]2(CCCc3ccccc3)CCC1CC2)[C@@](O)(c1cccs1)C1CCCC1 [Example 57, (3R)-3-[(2R)-2-Cyclopentyl-2-hydroxy-2-thien-2-ylacetoxy]-1-(3-phenylpropyl)-1-azoniabicyclo[2.2.2]octane trifluoroacetate] | 77.4% | 47.1% | – | –
23 | O=C(O[C@H]1C[N+]2(CCCc3cccs3)CCC1CC2)[C@@](O)(c1ccco1)C1CCCC1 [Example 61, (3R)-3-[(2S)-2-Cyclopentyl-2-fur-2-yl-2-hydroxyacetoxy]-1-(3-thien-2-ylpropyl)-1-azoniabicyclo[2.2.2]octane trifluoroacetate] | 75.1% | 39.9% | – | –
24 | O=C(O[C@H]1C[N+]2(CCCOc3ccccc3)CCC1CC2)[C@](O)(c1ccco1)C1CCCC1 [Example 64, (3R)-3-[(2R)-2-Cyclopentyl-2-fur-2-yl-2-hydroxyacetoxy]-1-(3-phenoxypropyl)-1-azoniabicyclo[2.2.2]octane trifluoroacetate] | 78.6% | 64.5% | – | –
25 | O=C(O[C@H]1C[N+]2(CCCc3cccs3)CCC1CC2)[C@](O)(c1ccco1)C1CCCC1.O=C([O-])C(F)(F)F [Example 65, (3R)-3-[(2R)-2-Cyclopentyl-2-fur-2-yl-2-hygroxyacetoxy]-1-(3-thien-2-ylpropyl)-1-azoniabicyclo[2.2.2]octane trifluoroacetate] | – | – | 66.0% | 79.8%
26 | O=C(O[C@H]1C[N+]2(CCCc3ccccc3)CCC1CC2)[C@](O)(c1ccco1)C1CCCC1 [Example 67, (3R)-3-[(2R)-2-Cyclopentyl-2-fur-2-yl-2-hydroxyacetoxy]-1-(3-phenylpropyl)-1-azoniabicyclo[2.2.2]octane trifluoroacetate] | 75.1% | 52.5% | – | –
27 | O=C(O[C@H]1C[N+]2(CCCc3cccs3)CCC1CC2)[C@](O)(c1ccccc1)C1CCCCC1 [Example 69, (3R)-3-[(2R)-2-Cyclohexyl-2-hydroxy-2-phenylacetoxy]-1-(3-thien-2-ylpropyl)-1-azoniabicyclo[2.2.2]octane trifluoroacetate] | 70.8% | 43.9% | – | –

— US7122558B2 (priority 2000, dated 2006)
